Species: Rattus norvegicus
Experiment: Open TG-GATES - Regimen: Single
Assay type: toxicity, organism-based, Sprague-Dawley
Parameters: regimen Single, gender Male, age 6 weeks
Conditions: in vivo, po, 3 mg/kg, route gavage, dose level Low; for APTT / Bas / Eos / Fbg / Hb / Ht / Lym / MCH / MCHC / MCV / Mono / Neu / PT / Plat / RBC / Ret / WBC: tissue Blood; for KIDNEY_L / KIDNEY_R / KIDNEY_TOTAL: tissue Kidney; for LIVER: tissue Liver; for A/G / ALP / ALT / AST / BUN / CRE / Ca / Cl / DBIL / GLC / IP / K / LDH / Na / PL / RALB / TBIL / TC / TG / TP / gamma-GTP: tissue Plasma

**Q.** Which results are given for `C=CCO` [ALLYL ALCOHOL]?
**A.** TERMINAL_BW (3 h): 223.5 g; APTT (3 h): 18.8 s; Bas (3 h): 0%; Eos (3 h): 1%; Fbg (3 h): 234.6 mg/dL; Hb (3 h): 13.8 g/dL; Ht (3 h): 38.7%; Lym (3 h): 76%; MCH (3 h): 21.7 pg; MCHC (3 h): 35.6%; MCV (3 h): 60.9 fL; Mono (3 h): 3.2%; Neu (3 h): 19.8%; PT (3 h): 11.8 s; Plat (3 h): 126.8 x10_4/uL; RBC (3 h): 635.2 x10_4/ul; Ret (3 h): 6.4%; WBC (3 h): 81.6 x10_2/uL; KIDNEY_L (3 h): 1 g; KIDNEY_R (3 h): 1 g; KIDNEY_TOTAL (3 h): 2 g; LIVER (3 h): 10.2 g; A/G (3 h): 1.6; ALP (3 h): 1094.8 IU/L; ALT (3 h): 37.4 IU/L; AST (3 h): 67.6 IU/L; BUN (3 h): 11.4 mg/dL; CRE (3 h): 0.4 mg/dL; Ca (3 h): 11.2 mg/dL; Cl (3 h): 100.6 meq/L; DBIL (3 h): 0.5 mg/dL; GLC (3 h): 195.2 mg/dL; IP (3 h): 8.6 mg/dL; K (3 h): 3.7 meq/L; LDH (3 h): 235.4 IU/L; Na (3 h): 139.8 meq/L; PL (3 h): 181 mg/dL; RALB (3 h): 3.5 g/dL; TBIL (3 h): 0.6 mg/dL; TC (3 h): 81 mg/dL; TG (3 h): 262 mg/dL; TP (3 h): 5.7 g/dL; gamma-GTP (3 h): 0.6 IU/L; TERMINAL_BW (6 h): 220.1 g; APTT (6 h): 19 s; Bas (6 h): 0%; Eos (6 h): 1%; Fbg (6 h): 220.8 mg/dL; Hb (6 h): 13.2 g/dL; Ht (6 h): 38.3%; Lym (6 h): 76%; MCH (6 h): 21 pg; MCHC (6 h): 34.3%; MCV (6 h): 61 fL; Mono (6 h): 3.8%; Neu (6 h): 18.8%; PT (6 h): 12.2 s; Plat (6 h): 122.5 x10_4/uL; RBC (6 h): 627.4 x10_4/ul; Ret (6 h): 7.1%; WBC (6 h): 102.5 x10_2/uL; KIDNEY_L (6 h): 0.9 g; KIDNEY_R (6 h): 1 g; KIDNEY_TOTAL (6 h): 1.9 g; LIVER (6 h): 9.4 g; A/G (6 h): 1.6; ALP (6 h): 1095 IU/L; ALT (6 h): 33 IU/L; AST (6 h): 70.6 IU/L; BUN (6 h): 7.8 mg/dL; CRE (6 h): 0.4 mg/dL; Ca (6 h): 10.7 mg/dL; Cl (6 h): 102.8 meq/L; DBIL (6 h): 0.1 mg/dL; GLC (6 h): 192.4 mg/dL; IP (6 h): 8.7 mg/dL; K (6 h): 3.9 meq/L; LDH (6 h): 222.4 IU/L; Na (6 h): 141.2 meq/L; PL (6 h): 149.6 mg/dL; RALB (6 h): 3.4 g/dL; TBIL (6 h): 0.2 mg/dL; TC (6 h): 76.4 mg/dL; TG (6 h): 77.8 mg/dL; TP (6 h): 5.5 g/dL; gamma-GTP (6 h): 1 IU/L; TERMINAL_BW (9 h): 215.7 g; APTT (9 h): 18.7 s; Bas (9 h): 0%; Eos (9 h): 1.2%; Fbg (9 h): 221.8 mg/dL; Hb (9 h): 13.4 g/dL; Ht (9 h): 39.1%; Lym (9 h): 75.8%; MCH (9 h): 20.9 pg; MCHC (9 h): 34.3%; MCV (9 h): 61 fL; Mono (9 h): 3.2%; Neu (9 h): 20.2%; PT (9 h): 12.2 s; Plat (9 h): 124 x10_4/uL; RBC (9 h): 640.4 x10_4/ul; Ret (9 h): 6.9%; WBC (9 h): 65 x10_2/uL; KIDNEY_L (9 h): 1 g; KIDNEY_R (9 h): 1 g; KIDNEY_TOTAL (9 h): 2 g; LIVER (9 h): 9.1 g; A/G (9 h): 1.5; ALP (9 h): 994.6 IU/L; ALT (9 h): 27.6 IU/L; AST (9 h): 59.2 IU/L; BUN (9 h): 9.6 mg/dL; CRE (9 h): 0.3 mg/dL; Ca (9 h): 10.5 mg/dL; Cl (9 h): 101.8 meq/L; DBIL (9 h): 0.08 mg/dL; GLC (9 h): 210.2 mg/dL; IP (9 h): 10.7 mg/dL; K (9 h): 3.8 meq/L; LDH (9 h): 169.2 IU/L; Na (9 h): 140.8 meq/L; PL (9 h): 143 mg/dL; RALB (9 h): 3.3 g/dL; TBIL (9 h): 0.1 mg/dL; TC (9 h): 71.8 mg/dL; TG (9 h): 62 mg/dL; TP (9 h): 5.5 g/dL; gamma-GTP (9 h): 0.8 IU/L; TERMINAL_BW (24 h): 232.9 g; APTT (24 h): 20.4 s; Bas (24 h): 0%; Eos (24 h): 1%; Fbg (24 h): 230 mg/dL; Hb (24 h): 13.6 g/dL; Ht (24 h): 39.9%; Lym (24 h): 78.8%; MCH (24 h): 20.5 pg; MCHC (24 h): 34%; MCV (24 h): 60.4 fL; Mono (24 h): 3.4%; Neu (24 h): 16.4%; PT (24 h): 11.7 s; Plat (24 h): 127.6 x10_4/uL; RBC (24 h): 660.4 x10_4/ul; Ret (24 h): 6.2%; WBC (24 h): 97.6 x10_2/uL; KIDNEY_L (24 h): 1 g; KIDNEY_R (24 h): 1 g; KIDNEY_TOTAL (24 h): 2 g; LIVER (24 h): 11.2 g; A/G (24 h): 1.5; ALP (24 h): 863.4 IU/L; ALT (24 h): 35 IU/L; AST (24 h): 64.4 IU/L; BUN (24 h): 16 mg/dL; CRE (24 h): 0.4 mg/dL; Ca (24 h): 10.9 mg/dL; Cl (24 h): 101.8 meq/L; DBIL (24 h): 0.098 mg/dL; GLC (24 h): 202.8 mg/dL; IP (24 h): 7.2 mg/dL; K (24 h): 4 meq/L; LDH (24 h): 204.6 IU/L; Na (24 h): 141 meq/L; PL (24 h): 154.4 mg/dL; RALB (24 h): 3.4 g/dL; TBIL (24 h): 0.2 mg/dL; TC (24 h): 77 mg/dL; TG (24 h): 118.2 mg/dL; TP (24 h): 5.6 g/dL; gamma-GTP (24 h): 0.8 IU/L
